Data taken from patent US4665088A, “(E-Z)-4,5,9-trithiadodeca-1,6,11-triene 9-oxides” (The Research Foundation of State University of New York, priority 1984, dated 1987).
Like-named read-outs stand apart in the source and are kept apart here.

How the values were obtained:
Assay type in all cases: cell-based
[1] = system: collagen-induced platelet aggregation (platelet rich, citrated, human blood plasma); assay: Inhibition of collagen-induced aggregation of platelets in platelet rich, citrated human blood plasma
Text: (§1) Though the compounds of this invention have multiple uses such as for example as bacteriocides and fungicides, a particularly important utility is as an antithrombotic agent. Various chemicals are known to cause blood platelets to aggregate which in turn can result in blood clots in the blood circulatory system of living systems. Certain other compounds are known to prevent blood platelet aggregation and accordingly are known herein as antithrombotic agents, while other compounds prevent clotting of aggregated platelets and are called anticoagulants. Both are used in the treatment of phlebitis, stroke, coronary thrombosis and arteriosclerosis. In a typical test to determine antithrombotic activity, the suspected antithrombotic chemical is mixed with a suspension of blood platelets, incubated for a few minutes, and then the suspension is treated with a known amount of a known agonist (agent inducing aggregation). The effectiveness of the suspected antithrombotic is compared to a control which has been treated with the agonist but which has not been treated with the antithrombotic and a quantitative measure of effectiveness is determined by ascertaining the concentration of suspected antithrombotic necessary to reduce by 50% the extent of platelet aggregation compared to the control. This measurement is termed the ID50 of the antithrombotic. Typical agonists include collagen and ADP (adenosine diphosphate).
Platelet rich, citrated, human blood plasma (250,000 platelets/μL) was prepared and divided into 0.45 ml. aliquots for use in determining ID50 levels of the subject compounds. The aliquots were treated with various quantities of (E)-ajoene, (Z)-ajoene, mixed (E,Z)-ajoene and mixed (E,Z)-ajoene together with prostacyclin and indomethacin. A control was maintained free of antithrombotic. The thus treated aliquots were pre-incubated by maintaining in an aggregometer cuvette for 2 minutes at 37° C. with stirring (950 RPM). Each aliquot was then further treated with an appropriate amount of ADP (10 μmole) or collagen (1 μg/ml or 2 μg/ml). Aggregation in each aliquot was monitored for a period of 3-5 minutes and percentage aggregation was quantitated by a dual channel aggregometer which ascertained percent aggregation by comparison against a control of light transmittance through the sample.

platelet aggregation = assay: Antithrombotic/anticoagulant activity (general statement); settings: for antithrombotic activity when combined with the compounds of the invention: combined with the compounds of the instant claimed invention
Text: as §1

[2] = system: ADP-induced platelet aggregation (platelet rich, citrated, human blood plasma); assay: Inhibition of ADP-induced aggregation of platelets in platelet rich, citrated human blood plasma; settings: ADP (10 μmole), read-out: ID50 (the source's name)
Text: as §1, with “In a typical test to determine antithrombotic activity, the suspected antithrombotic chemical is mixed with a suspension of blood platelets, incubated for a few minutes, and then the suspension is treated with a known amount of a known agonist (agent inducing aggregation).” left out, “This measurement is termed the ID50 of the antithrombotic. Typical agonists include collagen and ADP (adenosine diphosphate).” left out
Platelet rich, citrated, human blood plasma (250,000 platelets/μL) was prepared and divided into 0.45 ml. aliquots for use in determining ID50 levels of the subject compounds. The aliquots were treated with various quantities of (E)-ajoene, (Z)-ajoene, mixed (E,Z)-ajoene and mixed (E,Z)-ajoene together with prostacyclin and indomethacin. […]

[3] = COLLAGEN (1 μg/ml), (E,Z)-ajoene 70:30 together with Prostacyclin (aliquot 5), read-out: ID50 (the source's name)
[4] = COLLAGEN (1 μg/ml), antithrombotic alone, read-out: ID50 (the source's name)
[5] = COLLAGEN (2 μg/ml), read-out: ID50 (the source's name)

Row | Structure (SMILES) | IC50 [1, 3] [µM] | IC50 [1, 4] [µM] | antithrombotic activity when combined with the compounds of the invention (platelet aggregation) | IC50 [1, 5] [µM] | IC50 [2] [µM] | other results
1 | CCCCC[C@H](O)/C=C/[C@@H]1[C@H]2C/C(=C/CCCC(=O)O)O[C@H]2C[C@H]1O [Prostacyclin, reference compound] | 0.001 | 0.001 | particularly enhanced antithrombotic activity |  |  | 
2 | C=CCSSC=CC[S+]([O-])CC=C (stereo not shown) [(E,Z)-ajoene, (E,Z)-4,5,9-trithiadodeca-1,6,11-triene 9-oxide] | 2.3 | 92 |  |  |  | IC50 ([1]; COLLAGEN (1 μg/ml), (E,Z)-ajoene 70:30 together with Indomethacin (aliquot 7), read-out: ID50 (the source's name)): 4.5 µM; antithrombotic activity (platelet aggregation): significant antithrombotic activity
3 | COc1ccc2c(c1)c(CC(=O)O)c(C)n2C(=O)c1ccc(Cl)cc1 [Indomethacin, reference compound] |  |  | particularly enhanced antithrombotic activity |  |  | IC50 ([1]; read-out: ID50): 0.2 µM
4 | C=CCSS/C=C/C[S+]([O-])CC=C (stereo not shown) [(E)-ajoene] |  |  |  | 243 ± 90 | 213 | 
5 | C=CCSS/C=C\C[S+]([O-])CC=C (stereo not shown) [(Z)-ajoene] |  |  |  | 196 ± 64 | 188 ± 38 | 
